According to ChEMBL document CHEMBL1201862, “PubChem BioAssay data set” (2004):
Activity calls are given as the source filed them.

Columns and labels:
[1] = target: T1, Eukaryotic translation initiation factor 2-alpha kinase 3 (Homo sapiens, UniProt Q9NZJ5); experiment: Counterscreen assay for PERK inhibitors: Dose response cell-based high throughput screening assay to measure inhibition of PERK at 6 hours. [Related pubchem assays: 1522, 1416 ]; format: functional
[2] = target: T1, Eukaryotic translation initiation factor 2-alpha kinase 3; experiment: Dose response cell-based high-throughput screening assay to measure PERK inhibition. [Related pubchem assays: 1416 ]; format: functional
[3] = target: Neuropeptides B/W receptor type 1 (Homo sapiens, UniProt P48145); experiment: Fluorescence-based dose response cell-based high throughput screening assay to identify antagonists of the G-protein coupled receptor 7 (GPR7). [Related pubchem assays: 1952 (Screening assay (GPR7 antagonists).), 1880 (Summary AID.)]; format: functional
[4] = cytotoxicity in KRAS-transformed pancreatic duct cells, primary screen, cell-based, fluorescence, HTS (AID 431); format: functional; conditions: Homo sapiens;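 note: cell line used: HPDE-C7K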
[5] = target: Melanin-concentrating hormone receptor 1 (Homo sapiens, UniProt Q99705); experiment: Fluorescence-based counterscreen for antagonists of the G-protein coupled receptor 7 (GPR7): cell-based high throughput dose response assay to identify antagonists of the melanin-concentrating hormone receptor 1 (MCHR1).; format: functional
[6] = cytotoxicity in HPDE-C7 cells, cell-based, fluorescence, HTS (AID 430); format: functional; conditions: Homo sapiens
[7] = A Cell Based Assay for the Identification of Probe candidate Compounds with Anti- Venezuelan Equine Encephalitis virus. [Related pubchem assays: 2409, 2419, 1621, 2238, 2405, 2024, 2065, 2402, 2414, 1635, 1650, 2244 ]; format: functional
BJ [8] = experiment: cytotoxicity toward BJ-TERT fibroblasts, dose response, cell-based, RAS-independent, luminescence (AID 1933); format: functional; conditions: Homo sapiens
[9] = Shn3 3'UTR reporter inhibitors, dose response, cell-based, Clone20 osteoblasts, firefly luciferase, cherry-picked (AID 624132); format: functional;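 note: firefly luciferase luminescence from reporter carrying the Shn3 3'UTR in osteoblasts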
[10] = NIH-3T3 fibroblast cytotoxicity, dose response, cytotoxicity control, cell-based, fluorescence, Alamar Blue, secondary assay (AID 2327); format: functional;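 note: NIH-3T3 mouse fibroblasts cultured with fluconazole at 8 µg/mL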
Vero [11] = experiment: Vero E6 cell cytotoxicity, SAR follow-up, cytotoxicity control for West Nile virus antiviral project, synthesized analogs (AID 2244); format: functional; conditions: Chlorocebus sabaeus
Vero [12] = experiment: cells; format: functional; conditions: Chlorocebus sabaeus
Streptococcus = experiment: Group A Streptococcus viability loss, dose response, counter-screen for streptokinase expression inhibitor project, luminescence, BacTiterGlo (AID 1915); format: functional, organism-based;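 note: potency for reduction of bacterial viability or growth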
[13] = inhibitors of firefly luciferase expression or activity, dose response, H4 neuroglioma cells, luminescence (AID 1990); format: functional, cell-based
BJ [14] = experiment: cells; format: functional, cell-based; conditions: Homo sapiens
[15] = cytotoxicity toward DRD oncogenic fibroblasts, dose response, cell-based, non-viral oncogenic, luminescence (AID 1934); format: functional; conditions: Homo sapiens
[16] = control 3'UTR Renilla luciferase suppression, dose response, counter-screen for Shn3 inhibitor project, cell-based, Clone20-Shn3RL, cherry-picked (AID 624133); format: functional
[17] = Luminescence Cell-Based Dose Response HTS to Identify Inhibitors of 5'UTR Stem-Loop Driven Prion Protein mRNA Translation in H4 Neuroglioblastoma Cells. [Related pubchem assays: 1827 (Project Summary), 1813 (Primary HTS)]; format: functional
[18] = inhibitors of SNCA 5'UTR-driven reporter translation, confirmation, H4 neuroglioma cells, luminescence (AID 1988); format: functional, cell-based
INS1 = experiment: beta cell apoptosis inhibitors, cytokine rescue, dose response, luminescence, retest (AID 449756); format: functional, cell-based; conditions: Rattus norvegicus;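 note: cell death triggered by IL-1 beta plus TNF-alpha plus IFN-gamma mixture; protective hits raise ATP signal compared with cytokine alone wells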
[19] = C. albicans growth with fluconazole, confirmation, fluorescence, retest (AID 2467); format: functional, cell-based
cells [20] = format: functional, cell-based
BJ [21] = experiment: cytotoxicity toward BJ-TERT-LT-ST fibroblasts, dose response, cell-based, RAS-independent, luminescence (AID 1935); format: functional; conditions: Homo sapiens;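 note: BJ fibroblasts immortalized with TERT plus LT and ST oncogenes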
[22] = inhibitors of intracellular T. cruzi replication, confirmation, NIH3T3 host cells, beta-gal luminescence (AID 2044); format: functional, cell-based;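 note: intracellular parasites grown in NIH/3T3 mouse fibroblasts as host cells; luminescent beta-galactosidase reporter signal from transgenic T. cruzi replicating inside host cells; inhibitors lower the luminescence signal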
[23] = test system: Streptococcus sp. 'group A'; experiment: growth inhibition of control SK(-) GAS strain, dose response, counter-screen for streptokinase expression inhibitor project, luminescence, kanamycin, BacTiterGlo, confirmation (AID 1900); format: functional, organism-based
Vero [24] = experiment: cytotoxicity of synthesized analogs in Vero cells, SAR follow-up, cytotoxicity control for West Nile virus antiviral project, cell-based, set II (AID 2402); format: functional; conditions: Chlorocebus sabaeus
Vero [25] = experiment: cytotoxicity of synthesized analogs in Vero 76, SAR follow-up, cytotoxicity control for West Nile virus antiviral project, Vero 76 cells (AID 2414); format: functional; conditions: Chlorocebus sabaeus
[26] = HepG2 cell cytotoxicity, dose response, cytotoxicity control for Shn3 inhibitor project, CellTiter-Glo, cherry-picked (AID 624134); format: functional, cell-based
[27] = cytotoxicity toward NIH3T3 fibroblasts, dose response, counter-screen, cell-based, ATP luminescence, mouse fibroblasts (AID 2010); format: functional;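 note: cells exposed to compound for about 90 hours before reading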
cells [28] = format: functional, cell-based; remark: listed apart in the source
Ion channel NompC [29] = target: T2, Ion channel NompC (Danio rerio, UniProt Q7T1G6); experiment: Fluorescence counterscreen assay for TRPML3 agonists: dose response cell-based high-throughput screening assay to identify agonists of the transient receptor potential channel N1 (TRPN1). [Related pubchem assays: 1526, 1424, 1448 ]; format: functional
[30] = cytotoxicity in HEK-293T cells, dose response, cytotoxicity control for TCR NF-kB inhibitor project, luminescence, T-cell screen hits (AID 489026); format: functional, cell-based;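 note: cells exposed to compound about 14 hours before the viability readout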
Ion channel NompC [31] = target: T2, Ion channel NompC; experiment: TRPML3 and TRPML2 channel agonists, cell-based, patch clamp, Fura-2 profiling panel, panel member TRPN1 Dose Response (AID 2116)
Mucolipin-3 [32] = target: T3, Mucolipin-3 (Homo sapiens, UniProt Q8TDD5); experiment: Dose response cell-based high-throughput screening assay for agonists of the transient receptor potential channel ML3 (TRPML3). [Related pubchem assays: 1526, 1424, 1448 ]; format: functional
T3 sequence (Q8TDD5 whole entry): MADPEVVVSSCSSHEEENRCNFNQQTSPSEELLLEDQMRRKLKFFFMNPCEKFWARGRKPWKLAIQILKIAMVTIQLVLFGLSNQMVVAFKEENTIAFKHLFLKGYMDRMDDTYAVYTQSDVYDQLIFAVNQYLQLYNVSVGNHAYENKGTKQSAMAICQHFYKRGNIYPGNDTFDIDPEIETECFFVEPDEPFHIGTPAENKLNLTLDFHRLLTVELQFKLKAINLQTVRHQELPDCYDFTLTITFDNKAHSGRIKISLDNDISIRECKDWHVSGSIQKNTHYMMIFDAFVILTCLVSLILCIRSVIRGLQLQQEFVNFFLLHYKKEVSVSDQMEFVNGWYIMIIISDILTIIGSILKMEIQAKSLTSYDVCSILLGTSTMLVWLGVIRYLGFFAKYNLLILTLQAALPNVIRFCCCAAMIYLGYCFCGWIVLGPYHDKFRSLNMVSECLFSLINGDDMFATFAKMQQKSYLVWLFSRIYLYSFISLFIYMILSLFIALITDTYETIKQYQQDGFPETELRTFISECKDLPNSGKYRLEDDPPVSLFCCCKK

Mucolipin-3 [33] = target: T3, Mucolipin-3; experiment: TRPML3 and TRPML2 channel agonists, cell-based, patch clamp, Fura-2 profiling panel, panel member TRPML3 Dose Response (AID 2116)
HeLa = experiment: HeLa cell cytotoxicity, dose response, cytotoxicity control, 24 h, cherry-picked samples (AID 504726); format: functional, cell-based; conditions: Homo sapiens;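 note: potency for cytotoxicity as loss of luminescence signal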
ORF 73 = ORF 73 (Human herpesvirus 8, UniProt O40947); experiment: inhibitors of C-LANA binding to LBS DNA, dose response, biochemical, fluorescence polarization, cherry-picked samples (AID 504725); set-up: species or system Human gammaherpesvirus 8;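 note: fluorescence polarization of a labeled DNA duplex reporting LANA DNA binding; potency is for inhibitors that block LANA binding to the DNA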
Keap1/Nrf2 = Keap1/Nrf2 (Homo sapiens, UniProt Q14145); experiment: Keap1-Nrf2 protein-protein interaction inhibitors, dose response, biochemical, fluorescence polarization, cherry-picked samples (AID 588683)
BJ [34] = experiment: cytotoxicity toward Ras-transformed BJeLR fibroblasts, dose response, cell-based, alamar blue fluorescence, cherrypicked samples (AID 2631); format: functional; conditions: Homo sapiens;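 note: confirmatory dose-response assay in RAS-dependent BJ fibroblasts engineered with TERT, LT and ST, with cytotoxicity read by fluorescence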
[35] = target: Luciferin 4-monooxygenase (Photinus pyralis, UniProt P08659); experiment: firefly luciferase enzyme inhibitors, dose response, biochemical, luminescence (AID 1891)
[36] = inhibition of ADP-Glo detection reagents, dose response, artefact control for CDK5 inhibitor project, biochemical, luminescence, cherry-picked samples, set 2 (AID 504546); format: functional
[37] = Luminescence Cell-Based Dose Confirmation HTS to Identify Inhibitors of Platelet Dense Granule Release. [Related pubchem assays: 1663 (Primary HTS), 1678 (Summary of Project)]; format: functional
HEK293 = experiment: inhibitors of LMP1-driven NF-kB reporter, dose response, cell-based, HEK293, luciferase, cherry-pick (AID 588343); format: functional; conditions: Homo sapiens
[38] = target: Cyclin-dependent kinase 5/CDK5 activator 1 (Homo sapiens, UniProt Q00535); experiment: CDK5/p35 kinase inhibitors, dose response, biochemical, cherry-picked samples, set 2 (AID 504545)
Sequence of Cyclin-dependent kinase 5/CDK5 activator 1 (Q00535 whole entry): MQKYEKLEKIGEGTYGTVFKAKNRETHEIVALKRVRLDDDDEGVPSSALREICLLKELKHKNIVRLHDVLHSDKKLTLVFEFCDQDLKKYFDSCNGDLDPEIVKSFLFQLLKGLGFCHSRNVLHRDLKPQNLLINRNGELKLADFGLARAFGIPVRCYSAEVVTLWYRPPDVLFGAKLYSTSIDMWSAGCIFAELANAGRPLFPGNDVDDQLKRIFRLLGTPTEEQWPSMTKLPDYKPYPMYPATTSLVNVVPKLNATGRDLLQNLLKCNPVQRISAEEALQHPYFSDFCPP
Sequence of Cyclin-dependent kinase 5/CDK5 activator 1 (Q15078 whole entry, further chain): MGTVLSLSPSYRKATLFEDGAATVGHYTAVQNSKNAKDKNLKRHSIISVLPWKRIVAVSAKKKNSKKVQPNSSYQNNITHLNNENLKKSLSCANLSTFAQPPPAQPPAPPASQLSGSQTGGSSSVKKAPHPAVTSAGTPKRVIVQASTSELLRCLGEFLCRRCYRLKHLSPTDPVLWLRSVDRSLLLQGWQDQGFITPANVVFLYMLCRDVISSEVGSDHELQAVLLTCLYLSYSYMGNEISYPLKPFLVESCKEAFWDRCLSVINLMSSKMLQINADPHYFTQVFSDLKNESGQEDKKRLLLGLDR

T1 sequence (Q9NZJ5 whole entry): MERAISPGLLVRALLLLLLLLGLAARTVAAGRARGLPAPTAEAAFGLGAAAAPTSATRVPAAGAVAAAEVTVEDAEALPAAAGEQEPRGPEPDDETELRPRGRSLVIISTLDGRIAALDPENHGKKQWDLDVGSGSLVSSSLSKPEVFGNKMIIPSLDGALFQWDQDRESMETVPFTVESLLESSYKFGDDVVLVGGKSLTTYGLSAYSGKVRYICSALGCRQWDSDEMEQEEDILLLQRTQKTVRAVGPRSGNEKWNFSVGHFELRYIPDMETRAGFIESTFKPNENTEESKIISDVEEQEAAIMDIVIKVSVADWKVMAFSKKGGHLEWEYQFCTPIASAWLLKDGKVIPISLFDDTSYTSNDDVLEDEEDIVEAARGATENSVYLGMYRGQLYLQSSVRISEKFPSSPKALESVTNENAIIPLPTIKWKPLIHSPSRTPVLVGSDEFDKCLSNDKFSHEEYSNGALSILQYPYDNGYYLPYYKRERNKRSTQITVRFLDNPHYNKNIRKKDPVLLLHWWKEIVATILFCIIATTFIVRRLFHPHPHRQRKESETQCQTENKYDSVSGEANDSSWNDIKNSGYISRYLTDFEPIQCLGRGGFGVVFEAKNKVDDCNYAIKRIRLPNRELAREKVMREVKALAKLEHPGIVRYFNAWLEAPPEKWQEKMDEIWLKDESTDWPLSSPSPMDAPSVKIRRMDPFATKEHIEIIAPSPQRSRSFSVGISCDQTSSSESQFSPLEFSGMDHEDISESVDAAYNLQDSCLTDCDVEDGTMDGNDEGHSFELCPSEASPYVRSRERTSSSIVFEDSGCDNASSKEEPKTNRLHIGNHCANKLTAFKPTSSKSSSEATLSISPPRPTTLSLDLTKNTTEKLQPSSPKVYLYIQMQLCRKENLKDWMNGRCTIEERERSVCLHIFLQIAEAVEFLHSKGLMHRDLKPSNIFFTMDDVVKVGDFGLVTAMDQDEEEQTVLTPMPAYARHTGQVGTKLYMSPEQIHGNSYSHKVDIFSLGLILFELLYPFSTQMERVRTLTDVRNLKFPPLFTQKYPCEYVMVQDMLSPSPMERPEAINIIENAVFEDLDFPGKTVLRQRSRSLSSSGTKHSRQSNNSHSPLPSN
T2 sequence (Q7T1G6 whole entry): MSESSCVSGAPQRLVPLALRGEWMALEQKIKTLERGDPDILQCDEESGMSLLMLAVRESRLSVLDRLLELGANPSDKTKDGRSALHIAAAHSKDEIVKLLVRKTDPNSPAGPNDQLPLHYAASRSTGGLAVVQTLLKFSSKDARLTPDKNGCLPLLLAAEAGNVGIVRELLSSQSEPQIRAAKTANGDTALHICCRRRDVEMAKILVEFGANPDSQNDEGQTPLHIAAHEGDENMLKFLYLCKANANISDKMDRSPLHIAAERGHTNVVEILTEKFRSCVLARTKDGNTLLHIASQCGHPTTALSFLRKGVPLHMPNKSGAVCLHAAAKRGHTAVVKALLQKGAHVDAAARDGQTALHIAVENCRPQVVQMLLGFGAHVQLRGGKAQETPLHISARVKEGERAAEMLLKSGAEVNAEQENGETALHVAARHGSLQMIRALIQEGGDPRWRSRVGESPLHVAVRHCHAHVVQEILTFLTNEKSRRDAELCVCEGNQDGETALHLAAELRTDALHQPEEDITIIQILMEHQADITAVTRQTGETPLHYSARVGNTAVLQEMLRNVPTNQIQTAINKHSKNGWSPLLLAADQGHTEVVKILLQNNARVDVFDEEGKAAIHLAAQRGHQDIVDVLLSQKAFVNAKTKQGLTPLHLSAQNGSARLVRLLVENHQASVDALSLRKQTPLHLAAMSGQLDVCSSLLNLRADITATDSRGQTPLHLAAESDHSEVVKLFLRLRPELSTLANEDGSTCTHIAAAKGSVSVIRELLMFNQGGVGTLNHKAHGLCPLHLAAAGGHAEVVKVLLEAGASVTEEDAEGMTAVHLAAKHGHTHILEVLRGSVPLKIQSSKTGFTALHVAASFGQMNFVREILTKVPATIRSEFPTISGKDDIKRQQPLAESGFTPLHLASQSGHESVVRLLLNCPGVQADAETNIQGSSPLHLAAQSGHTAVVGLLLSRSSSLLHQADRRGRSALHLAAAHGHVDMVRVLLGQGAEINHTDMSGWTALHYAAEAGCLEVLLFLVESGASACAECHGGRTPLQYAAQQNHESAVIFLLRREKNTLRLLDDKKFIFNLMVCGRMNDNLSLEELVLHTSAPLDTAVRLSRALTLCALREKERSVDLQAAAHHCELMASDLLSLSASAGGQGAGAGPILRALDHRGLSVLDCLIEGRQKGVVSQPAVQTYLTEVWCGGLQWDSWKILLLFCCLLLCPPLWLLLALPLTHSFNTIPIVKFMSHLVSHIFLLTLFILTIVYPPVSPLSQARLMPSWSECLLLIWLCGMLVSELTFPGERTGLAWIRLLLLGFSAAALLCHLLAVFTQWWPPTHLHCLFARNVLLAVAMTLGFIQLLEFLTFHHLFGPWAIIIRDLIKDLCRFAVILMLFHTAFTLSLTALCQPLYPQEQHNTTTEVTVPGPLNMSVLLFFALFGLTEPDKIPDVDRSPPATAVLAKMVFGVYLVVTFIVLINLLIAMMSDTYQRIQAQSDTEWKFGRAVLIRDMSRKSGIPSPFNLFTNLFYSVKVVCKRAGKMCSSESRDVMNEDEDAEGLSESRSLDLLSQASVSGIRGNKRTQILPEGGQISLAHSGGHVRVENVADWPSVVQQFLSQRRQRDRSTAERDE
Sequence of Luciferin 4-monooxygenase (P08659 whole entry): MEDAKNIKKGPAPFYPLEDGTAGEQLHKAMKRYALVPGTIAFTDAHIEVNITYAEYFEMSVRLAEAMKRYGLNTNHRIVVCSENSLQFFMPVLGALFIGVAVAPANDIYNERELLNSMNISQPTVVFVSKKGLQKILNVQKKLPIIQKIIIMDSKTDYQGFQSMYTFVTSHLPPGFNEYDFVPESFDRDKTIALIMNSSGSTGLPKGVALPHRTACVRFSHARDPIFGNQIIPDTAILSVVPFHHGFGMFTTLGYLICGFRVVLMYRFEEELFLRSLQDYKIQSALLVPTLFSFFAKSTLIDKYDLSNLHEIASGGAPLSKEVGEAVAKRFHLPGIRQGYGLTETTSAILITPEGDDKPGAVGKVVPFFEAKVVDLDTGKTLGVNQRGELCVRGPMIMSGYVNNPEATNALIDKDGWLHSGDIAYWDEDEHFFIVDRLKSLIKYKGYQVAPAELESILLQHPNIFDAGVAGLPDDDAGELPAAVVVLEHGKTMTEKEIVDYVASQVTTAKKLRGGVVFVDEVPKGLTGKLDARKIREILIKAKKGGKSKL
Sequence of Melanin-concentrating hormone receptor 1 (Q99705 whole entry): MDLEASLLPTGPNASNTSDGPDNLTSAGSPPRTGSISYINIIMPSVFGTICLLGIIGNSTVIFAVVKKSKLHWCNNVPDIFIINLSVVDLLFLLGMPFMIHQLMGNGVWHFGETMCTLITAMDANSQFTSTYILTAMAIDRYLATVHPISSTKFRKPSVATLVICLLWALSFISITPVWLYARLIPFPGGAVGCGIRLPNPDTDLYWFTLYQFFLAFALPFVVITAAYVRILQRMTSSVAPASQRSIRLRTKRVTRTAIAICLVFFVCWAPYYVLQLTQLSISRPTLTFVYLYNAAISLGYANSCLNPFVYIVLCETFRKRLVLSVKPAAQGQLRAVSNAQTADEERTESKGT
Sequence of Neuropeptides B/W receptor type 1 (P48145 whole entry): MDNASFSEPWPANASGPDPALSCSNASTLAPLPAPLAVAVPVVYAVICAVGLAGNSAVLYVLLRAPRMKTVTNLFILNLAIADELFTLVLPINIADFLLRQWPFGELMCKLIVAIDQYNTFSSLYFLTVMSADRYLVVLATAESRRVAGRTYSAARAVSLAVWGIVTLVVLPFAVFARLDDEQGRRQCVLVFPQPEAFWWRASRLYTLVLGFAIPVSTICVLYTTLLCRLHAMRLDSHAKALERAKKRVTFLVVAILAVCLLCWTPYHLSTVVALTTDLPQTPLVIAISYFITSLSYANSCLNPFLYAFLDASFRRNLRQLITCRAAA

COC(=O)c1ccc(OCCOc2ccc(C(=O)OC)cc2)cc1
EC50 [1]: > 55.7 µM (not active)
EC50 [2]: > 55.7 µM (not active)

CCc1ccccc1NC(=O)CN1C(=O)C2CCCN2c2ncc(Cl)cc21 (stereo unspecified)
IC50 [3]: > 43.8 µM (not active)
EC50 [4]: > 20 µM (not active)
IC50 [5]: > 43.8 µM (not active)
EC50 [6]: > 20 µM (not active)

Oc1ccccc1C(Nc1nccs1)c1ccc2cccnc2c1O (stereo unspecified)
IC50 [7]: 20.9 µM (active)
EC50 (BJ [8]): 8.13 µM (inconclusive)
AC50 [9]: 1.13 µM (active)
EC50 [10]: 6.03 µM (active)
CC50 (Vero [11]): 8 µM (active)
CC50 (Vero [12]): 10.3 µM (active)
EC50 (Streptococcus): 6.55 µM (active)
EC50 [13]: 11.9 µM (active)
EC50 (BJ [14]): 13.9 µM (active)
EC50 [15]: 10.7 µM (active)
AC50 [16]: 2.47 µM (active)
EC50 [17]: 8.46 µM (active)
EC50 [18]: 9.59 µM (active)
AC50 (INS1): 1.95 µM (active)
EC50 [19]: 1.4 µM (active)
EC50 (cells [20]): 12.5 µM (active)
EC50 (BJ [21]): 9.11 µM (active)
EC50 [22]: 0.832 µM (active)
EC50 [23]: 2.3 µM (active)
CC50 (Vero [24]): 7.2 µM (active)
CC50 (Vero [25]): 21.6 µM (active)
AC50 [26]: 6.74 µM (active)
EC50 [27]: 9.11 µM (active)
EC50 (cells [28]): > 350 µM (not active)

Cc1ccc(S(=O)(=O)Nc2ccccc2-c2ccccc2)cc1
EC50 (Ion channel NompC [29]): > 29.9 µM (not active)
EC50 [13]: > 120 µM (not active)
IC50 [30]: 79.9 µM (inactive)
EC50 (Ion channel NompC [31]): > 29.9 µM (inactive)
EC50 [17]: > 120 µM (not active)
EC50 [18]: 11.2 µM (active)
EC50 (Mucolipin-3 [32]): 1.59 µM (active)
EC50 (Mucolipin-3 [33]): 2.14 µM (active)

Cc1cccc(N2C(=O)c3cccc4c(N(C)CCO)ccc(c34)C2=O)c1
AC50 (HeLa): 324 µM (active)
AC50 (ORF 73): 204 µM (active)
AC50 (Keap1/Nrf2): 22.6 µM (active)

CCN(CC)C(=O)c1ccc(NC(=O)Nc2ccccc2F)cc1
EC50 (BJ [34]): > 133 µM (inactive)
EC50 (BJ [8]): 4.45 µM (active)
EC50 [35]: 0.225 µM (active)
AC50 [36]: 51.6 µM (active)
EC50 [37]: < 0.701 µM (active)
AC50 (HEK293): 2.08 µM (active)
EC50 (BJ [14]): 4.99 µM (active)
AC50 [38]: 21.1 µM (active)
EC50 [15]: 3.5 µM (active)
EC50 (BJ [21]): 9.1 µM (inconclusive)
